#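 Five concentrations, 48 hours, 96-well plates. GI50: concentration for 50% inhibition of growth. TGI is the concentration that stops growth completely.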
# Assays:
# Assay in all cases: NCI anticancer screen, dose series, 48 h
# A549 NSCLC = test system: A549 NSCLC
# HL-60(TB) leukemia = test system: HL-60(TB) leukemia
# KM12 colon = test system: KM12 colon
# LOX IMVI melanoma = test system: LOX IMVI melanoma
# MOLT-4 leukemia = test system: MOLT-4 leukemia
# SF-295 CNS = test system: SF-295 CNS
# SK-MEL-2 melanoma = test system: SK-MEL-2 melanoma
# SNB-19 CNS = test system: SNB-19 CNS
# SNB-75 CNS = test system: SNB-75 CNS
# SR leukemia = test system: SR leukemia
Compound,TGI (A549 NSCLC) [µM],TGI (HL-60(TB) leukemia) [µM],TGI (KM12 colon) [µM],TGI (LOX IMVI melanoma) [µM],TGI (MOLT-4 leukemia) [µM],TGI (SF-295 CNS) [µM],TGI (SK-MEL-2 melanoma) [µM],TGI (SNB-19 CNS) [µM],TGI (SNB-75 CNS) [µM],TGI (SR leukemia) [µM],GI50 (A549 NSCLC) [µM],GI50 (HL-60(TB) leukemia) [µM],GI50 (KM12 colon) [µM],GI50 (LOX IMVI melanoma) [µM],GI50 (MOLT-4 leukemia) [µM],GI50 (SF-295 CNS) [µM],GI50 (SK-MEL-2 melanoma) [µM],GI50 (SNB-19 CNS) [µM],GI50 (SNB-75 CNS) [µM],GI50 (SR leukemia) [µM]
c1ccc(C2=C(c3ccccc3)Sc3nnc(CCCCCCCCc4nnc5n4NC(c4ccccc4)=C(c4ccccc4)S5)n3N2)cc1,> 100,37.2,> 100,> 100,49.9,> 100,> 100,> 100,> 100,> 100,,,,,,,,,,
Cc1cccc(CNc2ncnc3[nH]ncc23)c1,> 100,> 100,> 100,> 100,> 100,> 100,> 100,> 100,> 100,> 100,,,,,,,,,,
O=C1c2ccccc2C(=O)c2c1cc1c(c2[N+](=O)[O-])OCO1,21.9,8.94,5.94,4.92,> 100,8.82,5.14,14.4,3.46,1.55,4.94,0.465,1.45,1.43,0.794,2.27,2.56,2.55,1.44,0.242
C[C@@]1(OC(=O)c2cc([N+](=O)[O-])cc([N+](=O)[O-])c2)C[C@@H]2CCCC[C@@H]21,> 100,> 100,> 100,> 100,> 100,> 100,> 100,> 100,> 100,> 100,,,,,,,,,,
BrCc1ccc(CBr)c2c1-c1c(CBr)ccc3ccc(CBr)c-2c13,> 100,> 100,> 100,> 100,> 100,> 100,> 100,> 100,> 100,> 100,,,,,,,,,,
O=c1cc(CNC2CC3CCC2C3)[nH]c(=O)[nH]1 (stereo not given),> 100,> 100,> 100,> 100,> 100,> 100,> 100,> 100,> 100,> 100,,,,,,,,,,
COc1cccc(C(NC2=NCCC=N2)c2cc3c(cc2O)OCO3)c1O (stereo not given),> 100,23.3,> 100,41.2,63,> 100,72.5,> 100,93.8,34.9,,,,,,,,,,
c1cncc(CSc2ncnc3nc[nH]c23)c1,> 100,> 100,> 100,> 100,> 100,> 100,> 100,> 100,> 100,> 100,,,,,,,,,,
O=C(NCCCCCCCN1CCCCCCC1)C(C1CCCCC1)C1CCCCC1,25.7,22.2,27.5,26.2,20.4,24.6,22.2,27.9,23.1,6.84,,,,,,,,,,
O/N=C1/CCCc2nonc21,> 100,> 100,> 100,> 100,> 100,> 100,> 100,> 100,> 100,> 100,,,,,,,,,,
CCCCN(C)C(=O)C1=C(C)NC(C)=C(C(=O)N(C)CCCC)C1,> 100,> 100,> 100,> 100,> 100,> 100,> 100,> 100,> 100,> 100,,,,,,,,,,
Cc1ccc(/C=C2\Cc3cc(C)c(C)cc3C2=O)c(C(=O)O)c1,> 100,> 100,> 100,> 100,> 100,> 100,> 100,> 100,> 100,> 100,,,,,,,,,,
O=C1CSC(c2ccccc2O)N1c1ccc(Oc2ccc(Cl)cc2)c(Cl)c1 (stereo not given),49.3,51.2,35.7,32.8,81,34.5,65.7,65,47.3,40.2,,,,,,,,,,
CCOC(=O)/C=C/C1(CCOC(C)=O)CCCCC1,> 10,> 10,> 10,> 10,> 10,> 10,> 10,> 10,> 10,> 10,,,,,,,,,,
COC1=C2CC(C)CC(OC)C(OC(=O)CCCN)C(C)/C=C(\C)C(OC(N)=O)C(OC)/C=C\C=C(/C)C(=O)NC(=CC1=O)C2=O (stereo not given),55.1,1.65,25.7,11.4,3.81,31.1,26.9,24.9,36.3,21.5,,,,,,,,,,
O=C1C=C(C2=C(C3=CC(=O)c4ccccc4C3=O)C(=O)c3ccccc3C2=O)C(=O)c2ccccc21,27,3.68,30.8,14.6,2.27,34,42.4,37.7,35.3,> 100,,,,,,,,,,
CCOC(=O)/C=C\C(C#N)(C#N)N=Cc1ccsc1,38.2,5.14,36.5,15.1,5.61,46.6,33.1,55.2,27.8,18.1,,,,,,,,,,
